Test results reported in article PMC12028158, “Synthesis and In Vitro Evaluation of the Anticancer Effect of Novel Phosphonium Vindoline Derivatives” (International Journal of Molecular Sciences, 2025).
Where two headings read alike, the source gives them in different places.

Legend:
Assay type in all cases: cell-based
COLO 205 = assay: NCI60 one-dose screen; details: Homo sapiens
SK-MEL-2 = assay: NCI60 five-dose screen; details: Homo sapiens
UO-31 = assay: NCI60 five-dose screen; details: Homo sapiens
KM12 [1] = assay: NCI60 one-dose screen; details: Homo sapiens
CAKI-1 = assay: NCI60 five-dose screen; details: Homo sapiens
HOP-62 = assay: NCI60 five-dose screen; details: Homo sapiens
SW-620 [2] = assay: NCI60 five-dose screen; details: Homo sapiens
MDA-MB231ATCC = assay: NCI60 five-dose screen; details: Homo sapiens, MDA-MB-231
SF-539 = assay: NCI60 one-dose screen; details: Homo sapiens
[3] = tested on: 60 human tumor cell lines (NCI60); assay: NCI60 one-dose screen, overall mean; details: Homo sapiens, read-out: Mean growth percent
SN12C = assay: NCI60 five-dose screen; details: Homo sapiens
NCI-H460 = assay: NCI60 five-dose screen; details: Homo sapiens
UACC-257 [4] = assay: NCI60 one-dose screen; details: Homo sapiens
SNB-75 = assay: NCI60 five-dose screen; details: Homo sapiens
SR = assay: NCI60 five-dose screen; details: Homo sapiens
OVCAR-5 = assay: NCI60 one-dose screen; details: Homo sapiens, OVCAR-5, read-out: Growth percent
DU-145 = assay: NCI60 five-dose screen; details: Homo sapiens
SK-MEL-5 = assay: NCI60 five-dose screen; details: Homo sapiens
MDA-MB-435 = assay: NCI60 five-dose screen; details: Homo sapiens
PC-3 [5] = assay: NCI60 five-dose screen; details: Homo sapiens
786-0 = assay: NCI60 five-dose screen; details: Homo sapiens
Melanoma panel = assay: NCI60 five-dose screen, panel mean; details: Homo sapiens, read-out: Mean GI50
LOX IMVI = assay: NCI60 five-dose screen; details: Homo sapiens
K-562 = assay: NCI60 one-dose screen; details: Homo sapiens
RPMI-8226 = assay: NCI60 one-dose screen; details: Homo sapiens
MOLT-4 = assay: NCI60 one-dose screen; details: Homo sapiens
HOP-92 = assay: NCI60 one-dose screen; details: Homo sapiens
MCF7 = assay: NCI60 five-dose screen; details: Homo sapiens
SW-620 [6] = assay: NCI60 one-dose screen; details: Homo sapiens
T-47D = assay: NCI60 one-dose screen; details: Homo sapiens, T47D, read-out: Growth percent
NCI-H23 = assay: NCI60 five-dose screen; details: Homo sapiens
KM12 [7] = assay: NCI60 five-dose screen; details: Homo sapiens
OVCAR-4 = assay: NCI60 five-dose screen; details: Homo sapiens
[8] = tested on: Non-small Cell Lung Cancer panel; assay: NCI60 five-dose screen, panel mean; details: Homo sapiens, read-out: Mean GI50
PC-3 [9] = assay: NCI60 one-dose screen; details: Homo sapiens
EKVX = assay: NCI60 one-dose screen; details: Homo sapiens, read-out: Growth percent
UACC-257 [10] = assay: NCI60 five-dose screen; details: Homo sapiens
[11] = tested on: 60 human tumor cell lines (NCI60); assay: NCI60 five-dose screen, overall mean; details: 60 cell, mean over all 60 cell lines, read-out: Mean GI50

CC[C@]12C=CCN3CC[C@@]4(c5ccc(OC)cc5N(C)[C@H]4[C@@](O)(C(=O)OC)[C@@H]1OC(=O)CCC[P+](c1ccccc1)(c1ccccc1)c1ccccc1OC)[C@@H]32 [9f]
activity at 10 µM (COLO 205; COLO 205, read-out: Growth percent): -90.7%
GI50 (SK-MEL-2; SK-MEL-2): 322 nM
GI50 (UO-31; UO-31): 11000 nM
activity at 10 µM (KM12 [1]; KM12, read-out: Growth percent): -93.4%
GI50 (CAKI-1; CAKI-1): 1900 nM
GI50 (HOP-62; HOP-62): 2160 nM
GI50 (SW-620 [2]; SW-620): 637 nM
GI50 (MDA-MB231ATCC): 397 nM
activity at 10 µM (SF-539; SF-539, read-out: Growth percent): -93.8%
activity at 10 µM ([3]; 60 cell): -45.4%
GI50 (SN12C): 325 nM
GI50 (NCI-H460; NCI-H460): 774 nM
activity at 10 µM (UACC-257 [4]; UACC-257, read-out: Growth percent): -73%
GI50 (SNB-75; SNB-75): 197 nM
GI50 (SR): 221 nM
activity at 10 µM (OVCAR-5): 10.6%
GI50 (DU-145; DU-145): 418 nM
GI50 (SK-MEL-5; SK-MEL-5): 777 nM
GI50 (MDA-MB-435; MDA-MB-435): 299 nM
GI50 (PC-3 [5]; PC-3): 268 nM
GI50 (786-0; 786-0): 1980 nM
GI50 (Melanoma panel): 490 nM
GI50 (LOX IMVI): 429 nM
activity at 10 µM (K-562; K562, read-out: Growth percent): -43.4%
activity at 10 µM (RPMI-8226; RPMI-8226, read-out: Growth percent): -38%
activity at 10 µM (MOLT-4; MOLT-4, read-out: Growth percent): 21.2%
activity at 10 µM (HOP-92; HOP-92, read-out: Growth percent): -58.4%
GI50 (MCF7; MCF7): 288 nM
activity at 10 µM (SW-620 [6]; SW-620, read-out: Growth percent): -48.7%
activity at 10 µM (T-47D): -25%
GI50 (NCI-H23; NCI-H23): 413 nM
GI50 (KM12 [7]; KM12): 331 nM
GI50 (OVCAR-4; OVCAR-4): 540 nM
GI50 [8]: 1050 nM
activity at 10 µM (PC-3 [9]; PC-3, read-out: Growth percent): 4.74%
activity at 10 µM (EKVX): -8.21%
GI50 (UACC-257 [10]; UACC-257): 406 nM

CC[C@]12C=CCN3CC[C@@]4(c5ccc(OC)cc5N(C)[C@H]4[C@@](O)(C(=O)OC)[C@@H]1OC(=O)CCC[P+](c1ccccc1)(c1ccccc1)c1ccccc1)[C@@H]32 [compound 3, reference compound]
activity at 10 µM (COLO 205; COLO 205, 10 μM, one-dose, read-out: Growth percent): -87.9%
GI50 (SK-MEL-2; SK-MEL-2, SK-MEL-2, Melanoma, five-dose, read-out: GI50): 322 nM
GI50 (UO-31; UO-31, Renal Cancer, five-dose, read-out: GI50): 10800 nM
GI50 [11]: 1980 nM
activity at 10 µM (KM12 [1]; KM12, 10 μM, one-dose, read-out: Growth percent): -27.2%
GI50 (CAKI-1; CAKI-1, Renal Cancer, five-dose, read-out: GI50): 5570 nM
GI50 (HOP-62; HOP-62, Non-small Cell Lung Cancer, five-dose, read-out: GI50): 1370 nM
GI50 (SW-620 [2]; SW-620, Colon Cancer, five-dose, read-out: GI50): 1200 nM
GI50 (MDA-MB231ATCC; MDA-MB231ATCC, Breast Cancer, five-dose, read-out: GI50): 406 nM
activity at 10 µM (SF-539; SF-539, 10 μM, one-dose, read-out: Growth percent): 16.2%
activity at 10 µM ([3]; mean over 60 cell lines, 10 μM, one-dose): 3.13%
GI50 (SN12C; Renal Cancer, five-dose, read-out: GI50): 590 nM
GI50 (NCI-H460; NCI-H460, Non-small Cell Lung Cancer, five-dose, read-out: GI50): 1220 nM
activity at 10 µM (UACC-257 [4]; UACC-257, 10 μM, one-dose, read-out: Growth percent): -27.3%
GI50 (SNB-75; SNB-75, CNS Cancer, five-dose, read-out: GI50): 750 nM
GI50 (SR; Leukemia, five-dose, read-out: GI50): 346 nM
GI50 (DU-145; DU-145, Prostate Cancer, five-dose, read-out: GI50): 1070 nM
GI50 (SK-MEL-5; SK-MEL-5, Melanoma, five-dose, read-out: GI50): 766 nM
GI50 (MDA-MB-435; MDA-MB-435, Melanoma, five-dose, read-out: GI50): 278 nM
GI50 (PC-3 [5]; PC-3, Prostate Cancer, five-dose, read-out: GI50): 204 nM
GI50 (786-0; 786-0, Renal Cancer, five-dose, read-out: GI50): 2740 nM
GI50 (Melanoma panel; mean over Melanoma panel): 450 nM
GI50 (LOX IMVI; Melanoma, five-dose, read-out: GI50): 858 nM
activity at 10 µM (K-562; K562, K-562, 10 μM, one-dose, read-out: Growth percent): 10.4%
activity at 10 µM (RPMI-8226; RPMI-8226, 10 μM, one-dose, read-out: Growth percent): -12.7%
activity at 10 µM (MOLT-4; MOLT-4, 10 μM, one-dose, read-out: Growth percent): 5.41%
activity at 10 µM (HOP-92; HOP-92, 10 μM, one-dose, read-out: Growth percent): -40%
GI50 (MCF7; MCF7, MCF7, Breast Cancer, five-dose, read-out: GI50): 306 nM
activity at 10 µM (SW-620 [6]; SW-620, 10 μM, one-dose, read-out: Growth percent): 17.4%
activity at 10 µM (T-47D; T-47D, 10 μM, one-dose): 1.08%
GI50 (NCI-H23; NCI-H23, Non-small Cell Lung Cancer, five-dose, read-out: GI50): 971 nM
GI50 (KM12 [7]; KM12, KM12, Colon Cancer, five-dose, read-out: GI50): 297 nM
GI50 (OVCAR-4; OVCAR-4, Ovarian Cancer, five-dose, read-out: GI50): 469 nM
GI50 ([8]; mean over Non-small Cell Lung Cancer panel): 1110 nM
activity at 10 µM (PC-3 [9]; PC-3, 10 μM, one-dose, read-out: Growth percent): 2.13%
activity at 10 µM (EKVX; 10 μM, one-dose): 10.3%
GI50 (UACC-257 [10]; UACC-257, UACC-257, Melanoma, five-dose, read-out: GI50): 240 nM
